In US20040229791A1, “Compositions and methods of modulating TGF-beta activity by fatty acids” (priority 2002, published 2004):

Tested on: TGF-β receptors in Mv1Lu cells
Assay: Binding of 125I-TGF-β2 to Mv1Lu cells in the presence of α2M*
Type: cell-based, mink
Settings: 30 μM arachidonic acid, 200 μg/ml α2M*
From the text: The levels of TGF ? β and ? 2M* also increase dramatically. α2M* is capable of inhibiting TGF- ? activity by forming complexes with TGF- ? and thus preventing it from binding to TGF ? β receptors in cells involved. Fatty acids may potentiate TGF ? β activity by blocking complex formation of ? 2M* and TGF ? β under these conditions. To test this possibility, we determined the effects of arachidonic acid on ^125I-TGF- ? 2 binding (in the presence and absence of α2M*) to Mv1Lu cells. ? 2M* is known to inhibit TGF- ? 2 more strongly than TGF ? β1 binding to T receptors in cells (13). Various concentrations of ^125I-TGF- ? 2 were preincubated with 200 μg/ml of ? 2M* in the presence or absence of 30 μM arachidonic acid for 30 min prior to the performance of binding assays in Mv1Lu cells. […] The residual ^125I-TGF- ? binding associated with the cells after ? 2M* inhibition was mainly due to non-specific binding of ^125I-TGF- ? 2. […] In the presence of 200 μg/ml of ? 2M*, the dose-response curve of TGF ? β2 shifted to the right. […] Addition of arachidonic acid at 0.5 and 1 μM reversed the inhibitory effect of. α2M* on TGF- ? 2-induced growth inhibition as measured by [methyl-^3H]-thymidine incorporation.
Binding of ^125I-TGF- ? […] After 2.5 hr at 0° C., the cells were washed with binding buffer, and the cell-associated radioactivity was determined. […]

CCCCC/C=C\C/C=C\C/C=C\C/C=C\CCCC(=O)O [arachidonic acid]
reversal of α2M* inhibition of 125I-TGF-β2 binding to Mv1Lu cells: completely reversed
